Test results published in patent publication US20230348376A1 (TEIJIN PHARMA LIMITED, priority 2020, published 2023).
Where two headings read alike, the source gives them in different places.

Experiments:
[1] = tested on: rat oligodendrocyte progenitor cells; test: Promotive activity of rat oligodendrocyte progenitor cell differentiation-2 (immunostaining of MBP); format: cell-based; conditions: vitamin D derivative 2 μM, T3 30 nM, 4 days
Summary of the method: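 Rat OPCs prepared by shaking in separation medium about 22 h at 37 °C, 200 rpm, and collecting the supernatant.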

[2] = Evaluation of brain penetration in mice (blood and brain concentration at brain Cmax); format: in vivo, mouse; conditions: 1 mg/kg single oral dose, C57BL/6J mice; for Concentration in blood (mean ± SD) at brain Cmax / Concentration in brain (mean ± SD) at brain Cmax: n=3; for Kp: male, mouse, brain/plasma, read-out: Concentration in brain/in blood ratio at brain Cmax
Summary of the method: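 Male C57BL/6J mice (8 weeks, n=3) dosed orally once at 1 […] mg/kg; plasma and brain collected at 0.25, 0.5, 1, 2, 4 and 8 h. Compound extracted with acetonitrile from brain homogenate and plasma, quantified by LC/MS/MS.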

[3] = molecular target: T1, human VDR (Homo sapiens, UniProt P11473); test: Evaluation of VDR transcription activity in human osteoblasts (HOS cells), luciferase reporter; conditions: Activity (EC50, VDR transcription activity), HOS cells transfected with human VDR, human RXRα and DR3 luciferase reporter; 21 hours
T1 sequence (P11473 1-427): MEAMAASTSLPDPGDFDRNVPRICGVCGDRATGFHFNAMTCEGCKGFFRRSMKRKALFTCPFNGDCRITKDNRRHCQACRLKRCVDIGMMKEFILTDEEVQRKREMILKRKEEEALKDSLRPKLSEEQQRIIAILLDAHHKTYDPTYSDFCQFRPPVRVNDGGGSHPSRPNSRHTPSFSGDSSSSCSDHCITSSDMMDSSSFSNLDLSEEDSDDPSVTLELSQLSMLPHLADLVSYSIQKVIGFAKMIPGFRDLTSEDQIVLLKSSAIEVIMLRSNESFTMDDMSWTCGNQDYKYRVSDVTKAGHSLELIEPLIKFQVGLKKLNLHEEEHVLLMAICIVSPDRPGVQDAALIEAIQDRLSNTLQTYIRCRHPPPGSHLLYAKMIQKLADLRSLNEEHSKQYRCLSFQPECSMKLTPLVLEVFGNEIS
T1 sequence (P19793 1-462 partner): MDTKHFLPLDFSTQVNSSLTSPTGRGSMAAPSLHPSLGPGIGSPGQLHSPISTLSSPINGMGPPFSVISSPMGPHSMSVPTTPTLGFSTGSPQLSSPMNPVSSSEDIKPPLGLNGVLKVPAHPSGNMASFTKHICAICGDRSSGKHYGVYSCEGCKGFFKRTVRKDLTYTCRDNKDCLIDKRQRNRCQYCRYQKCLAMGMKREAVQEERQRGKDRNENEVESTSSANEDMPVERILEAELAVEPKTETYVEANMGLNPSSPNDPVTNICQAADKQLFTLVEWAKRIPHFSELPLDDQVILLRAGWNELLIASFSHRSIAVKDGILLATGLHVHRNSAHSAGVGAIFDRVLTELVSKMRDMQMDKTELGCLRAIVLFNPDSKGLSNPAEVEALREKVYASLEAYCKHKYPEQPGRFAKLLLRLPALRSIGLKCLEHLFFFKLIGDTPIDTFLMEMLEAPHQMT

SMILES | Mean (number of MBP-positive cells/number of Hoechst33342-positive cells) ([1]; Test 2) | Concentration in blood (mean ± SD) at brain Cmax [2] | Concentration in brain (mean ± SD) at brain Cmax [2] | Kp ([2]; C57BL/6J, po, 1 mg/kg) | EC50 [3] | Concentration in brain/in blood ratio at brain Cmax [2] | Mean (number of MBP-positive cells/number of Hoechst33342-positive cells) ([1]; Test 1) | Kp [2]
C[C@H](CN1CC[C@@H](CCC(F)F)C1)[C@H]1CC[C@H]2/C(=C/C=C3C[C@@H](O)C[C@H](O)C3)CCC[C@]12C [Compound B064, (1R,3R)-5-(2-((1R,3aS,7aR,E)-1-((S)-1-((R)-3-(3,3-difluoropropyl)pyrrolidin-1-yl)propan-2-yl)-7a-methyloctahydro-4H-inden-4-ylidene)ethylidene)cyclohexane-1,3-diol] | 0.61 | 72 ± 11 nM | 38 ± 12 pmol/g | 0.53 | 100 to 1000 nM |  |  | 
C=C1[C@H](O)CC(=C/C=C2\CCC[C@]3(C)[C@@H]([C@H](C)CN4CCCC(O)(C(F)F)C4)CC[C@@H]23)C[C@H]1O (single isomer, unassigned) [Compound C036b] | 0.22 | 853 ± 89 nM | 495 ± 16 pmol/g |  | 10 to 100 nM | 0.58 |  | 
C[C@H](CN1CC[C@H](C(F)F)C1)[C@H]1CC[C@H]2/C(=C/C=C3C[C@@H](O)C[C@H](O)C3)CCC[C@]12C [Compound B022, (1R,3R)-5-(2-((1R,3aS,7aR,E)-1-((S)-1-((S)-3-(difluoromethyl)pyrrolidin-1-yl)propan-2-yl)-7a-methyloctahydro-4H-inden-4-ylidene)ethylidene)cyclohexane-1,3-diol] |  | 316 ± 84 nM | 529 ± 53 pmol/g | 1.67 | 10 to 100 nM |  | 0.47 | 
C=C1[C@H](O)CC(=C/C=C2\CCC[C@]3(C)[C@@H]([C@H](C)CN4CCCC(O)(C(F)F)C4)CC[C@@H]23)C[C@H]1O (single isomer, unassigned) [Compound C036a] | 0.53 | 849 ± 40 nM | 566 ± 89 pmol/g | 0.67 | < 1 nM |  |  | 
C=C1[C@H](O)CC(=C/C=C2\CCC[C@]3(C)[C@@H]([C@H](C)CN4CC[C@@H](CC(F)F)C4)CC[C@@H]23)C[C@H]1O [Compound B041, (1R,3R)-5-(2-((1R,3aS,7aR,E)-1-((S)-1-((S)-3-(2,2-difluoroethyl)pyrrolidin-1-yl)propan-2-yl)-7a-methyloctahydro-4H-inden-4-ylidene)ethylidene)-2-methylenecyclohexane-1,3-diol] |  | 207 ± 59 nM | 317 ± 19 pmol/g | 1.53 | 1 to 10 nM |  | 0.56 | 
C=C1/C(=C\C=C2/CCC[C@]3(C)[C@@H]([C@H](C)CN4CC[C@@H](CC(F)F)C4)CC[C@@H]23)C[C@@H](O)C[C@@H]1O [Compound B037, (1R,3S,Z)-5-(2-((1R,3aS,7aR,E)-1-((S)-1-((S)-3-(2,2-difluoroethyl)pyrrolidin-1-yl)propan-2-yl)-7a-methyloctahydro-4H-inden-4-ylidene)ethylidene)-4-methylenecyclohexane-1,3-diol] |  | 88 ± 19 nM | 74 ± 17 pmol/g | 0.84 | 10 to 100 nM |  | 0.49 | 
C=C1[C@H](O)CC(=C/C=C2\CCC[C@]3(C)[C@@H]([C@H](C)CN4CC[C@H](C(F)F)C4)CC[C@@H]23)C[C@H]1O [Compound B023, (1R,3R)-5-(2-((1R,3aS,7aR,E)-1-((S)-1-((S)-3-(difluoromethyl)pyrrolidin-1-yl)propan-2-yl)-7a-methyloctahydro-4H-inden-4-ylidene)ethylidene)-2-methylenecyclohexane-1,3-diol] |  | 248 ± 28 nM | 852 ± 48 pmol/g | 3.44 | 1 to 10 nM |  | 0.50 | 
C[C@H](CN1CCOC2(CC2)C1)[C@H]1CC[C@H]2/C(=C/C=C3C[C@@H](O)C[C@H](O)C3)CCC[C@]12C [Compound D019, (1R,3R)-5-(2-((1R,3aS,7aR,E)-1-((S)-1-(4-oxa-7-azaspiro[2.5]octan-7-yl)propan-2-yl)-7a-methyloctahydro-4H-inden-4-ylidene)ethylidene)cyclohexane-1,3-diol] | 0.57 | 280 ± 53 nM | 811 ± 163 pmol/g |  | 10 to 100 nM |  |  | 2.89
C[C@H](CN1CC[C@H](OCC(F)F)C1)[C@H]1CC[C@H]2/C(=C/C=C3C[C@@H](O)C[C@H](O)C3)CCC[C@]12C [Compound B057, (1R,3R)-5-(2-((1R,3aS,7aR,E)-1-((S)-1-((S)-3-(2,2-difluoroethoxy)pyrrolidin-1-yl)propan-2-yl)-7a-methyloctahydro-4H-inden-4-ylidene)ethylidene)cyclohexane-1,3-diol] | 0.57 | 271 ± 16 nM | 141 ± 8 pmol/g | 0.52 | 100 to 1000 nM |  |  | 
C=C1[C@H](O)CC(=C/C=C2\CCC[C@]3(C)[C@@H]([C@H](C)CN4CCC(C(C)(F)F)CC4)CC[C@@H]23)C[C@H]1O [Compound C055, (1R,3R)-5-(2-((1R,3aS,7aR,E)-1-((S)-1-(4-(1,1-difluoroethyl)piperidin-1-yl)propan-2-yl)-7a-methyloctahydro-4H-inden-4-ylidene)ethylidene)-2-methylenecyclohexane-1,3-diol] | 0.48 | 190 ± 23 nM | 338 ± 36 pmol/g | 1.78 | 10 to 100 nM |  |  | 
C[C@H](CN1CC[C@H](CC(F)F)C1)[C@H]1CC[C@H]2/C(=C/C=C3C[C@@H](O)C[C@H](O)C3)CCC[C@]12C [Compound B042, (1R,3R)-5-(2-((1R,3aS,7aR,E)-1-((S)-1-((R)-3-(2,2-difluoroethyl)pyrrolidin-1-yl)propan-2-yl)-7a-methyloctahydro-4H-inden-4-ylidene)ethylidene)cyclohexane-1,3-diol] | 0.53 | 79 ± 7 nM | 60 ± 5 pmol/g | 0.75 | 10 to 100 nM |  | 0.62 | 
